Measurements from article PMC13249053, “Mechanism of auranofin toxicity: Inhibition of tetrahydrobiopterin metabolism” (Toxicology and applied pharmacology, 2025).

Test system: BH4 formation in HaCaT cells
Assay: BH4 formation from sepiapterin in intact HaCaT cells (HPLC)
Assay type: cell-based, human
Settings: MTX 1 μM, 2 h, then 200 μM sepiapterin 3 h; BH2 accumulates
Method: The growth medium was then removed and the cells incubated with growth medium containing 100 μM sepiapterin. […] BH2 and BH4 were then analyzed on a Jasco high-performance liquid chromatography system (Easton, MD) fitted with a Maxsil-10 C18 column (250 × 4 mm; Phenomenex, Torrance, CA). […] Cell viability following drug treatments was greater than 95 %.
Fig. 3. Effects of auranofin on BH2 and BH4 production in intact HaCaT cells treated with sepiapterin. HaCaT cells (~1 × 10^6 cells/well in 6 well culture plates) were incubated with control medium or medium containing increasing concentrations of auranofin for 2 h followed by 100 μM sepiapterin. After an additional 3 h, BH2 and BH4 were extracted from the cells and analyzed by HPLC with fluorescence detection. Left panel: Chromatograms showing BH2 and BH4 content of control cells and cells treated with Auranofin.
Fig. 6. […] Cells were treated with control medium or medium containing MTX (1 μM, 2 h), an inhibitor of DHFR, followed by 200 μM sepiapterin (upper panel) or BH2 (lower panel). After an additional 3 h incubation, cells were rinsed with PBS; BH2 and BH4 were then extracted and analyzed by HPLC as described in the Materials and Methods.

SMILES: CN(Cc1cnc2nc(N)nc(N)c2n1)c1ccc(C(=O)N[C@@H](CCC(=O)O)C(=O)O)cc1 [methotrexate]
- effect on formation of BH4 from sepiapterin in HaCaT cells: inhibit the formation of BH4 from sepiapterin
